Numbers after ± are expanded uncertainties.

For data set [1] the following is noted: Crystal; DTA.
The nature of data set [2]: Molar enthalpy of transition or fusion. The settings on record: Crystal; DSC.

`c1ccc2ccccc2c1` [naphthalene]: the Normal melting temperature in data set [1] was 83.0 ± 1.1 °C. In addition, the “Molar enthalpy of transition or fusion” value in data set [2] was determined as 4.26 ± 0.131 kcal/mol.
